Results from patent US20240327393A1 (SIRONAX LTD., priority 2021, published 2024).

Tested on: HT-1080 (ATCC, CCL-121) cells
Test: HT-1080 cell viability assay with ferroptosis inducer RSL3 (Cell Titer-Glo)
Format: cell-based
Settings: Homo sapiens; HT-1080 cells treated with RSL3; 3-fold, 10-point dilution, 1.1 μM highest concentration; Table 2; read-out: EC50 (nM), ferroptosis inhibitory activity
Method in brief: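 HT-1080 cells (6000 per well) were cultured overnight at 37 °C, then co-treated with RSL3 and compound in a 3-fold, 10-point series topping at 1.1 μM. Viability was read by CellTiter-Glo luminescence and normalized to untreated controls. EC50 came from a sigmoidal non-linear regression fit.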

Structure (SMILES)	EC50
Cn1[nH]c2cc(Nc3ccc(N4CCCCC4)cc3)ccc2c1=O [Compound 257, 2-methyl-6-((4-(piperidin-1-yl)phenyl)amino)-1,2-dihydro-3H-indazol-3-one]	0.1 to 100 nM
CC1CCC(C)N1c1ccc(Nc2ccc3c(=O)n(C)[nH]c3c2)cc1 (stereo not shown) [Compound 259, 6-((4-(2,5-dimethylpyrrolidin-1-yl)phenyl)amino)-2-methyl-1,2-dihydro-3H-indazol-3-one]	0.1 to 100 nM
CCN(CCCOC)c1ccc(Nc2ccc3c(c2)n(C)c(=O)n3C)cc1 [Compound 262, 5-((4-(ethyl(3-methoxypropyl)amino)phenyl)amino)-1,3-dimethyl-1,3-dihydro-2H-benzo[d]imidazol-2-one]	0.1 to 100 nM
Cc1cc(N2CCC(C)CC2)c(Cl)cc1Nc1ccc2c(c1)n(C)c(=O)n2C [Compound 265, 5-((5-chloro-2-methyl-4-(4-methylpiperidin-1-yl)phenyl)amino)-1,3-dimethyl-1,3-dihydro-2H-benzo[d]imidazol-2-one]	0.1 to 100 nM
CC1CCN(c2ccc(Nc3cc(Cl)c4c(c3)CN(C)C4)cc2)CC1 [Compound 267, 7-chloro-2-methyl-N-(4-(4-methylpiperidin-1-yl)phenyl)isoindolin-5-amine]	0.1 to 100 nM
COc1cc(Nc2ccc3c(c2)n(C)c(=O)n3C)ccc1N1CCC(C(F)(F)F)CC1 [Compound 269, 5-((3-methoxy-4-(4-(trifluoromethyl)piperidin-1-yl)phenyl)amino)-1,3-dimethyl-1,3-dihydro-2H-benzo[d]imidazol-2-one]	0.1 to 100 nM
Cn1c(=O)n(C)c2cc(Nc3ccc(N4CCCC4)cc3)ccc21 [Compound 271, 1,3-dimethyl-5-((4-(pyrrolidin-1-yl)phenyl)amino)-1,3-dihydro-2H-benzo[d]imidazol-2-one]	0.1 to 100 nM
COc1cc(N2CCC(C)CC2)cc(F)c1Nc1ccc2c(c1)n(C)c(=O)n2C [Compound 272, 5-((2-fluoro-6-methoxy-4-(4-methylpiperidin-1-yl)phenyl)amino)-1,3-dimethyl-1,3-dihydro-2H-benzo[d]imidazol-2-one]	0.1 to 100 nM
CN(C)c1cc(Nc2ccc3c(c2)n(C)c(=O)n3C)cc(N(C)C)c1 [Compound 277, 5-((3,5-bis(dimethylamino)phenyl)amino)-1,3-dimethyl-1,3-dihydro-2H-benzo[d]imidazol-2-one]	0.1 to 100 nM
Cc1cc(N2CCC(C)CC2)cc(C)c1Nc1ccc2c(c1)n(C)c(=O)n2C [Compound 278, 5-((2,6-dimethyl-4-(4-methylpiperidin-1-yl)phenyl)amino)-1,3-dimethyl-1,3-dihydro-2H-benzo[d]imidazol-2-one]	0.1 to 100 nM
Cc1cc(N2CCC(C)CC2)ccc1Nc1ccc2c(c1)n(C)c(=O)n2C [Compound 280, 1,3-dimethyl-5-((2-methyl-4-(4-methylpiperidin-1-yl)phenyl)amino)-1,3-dihydro-2H-benzo[d]imidazol-2-one]	0.1 to 100 nM
Cc1cc(Nc2ccc3c(c2)n(C)c(=O)n3C)ccc1N1CCC(C)CC1 [Compound 282, 1,3-dimethyl-5-((3-methyl-4-(4-methylpiperidin-1-yl)phenyl)amino)-1,3-dihydro-2H-benzo[d]imidazol-2-one]	0.1 to 100 nM
CC1CCN(c2ccc(Nc3ccc4c(c3)n(C)c(=O)n4C)cc2F)CC1 [Compound 283, 5-((3-fluoro-4-(4-methylpiperidin-1-yl)phenyl)amino)-1,3-dimethyl-1,3-dihydro-2H-benzo[d]imidazol-2-one]	0.1 to 100 nM
CN(C)c1ccc(Nc2ccc3c(c2)n(C)c(=O)n3C)cc1 [Compound 284, 5-((4-(dimethylamino)phenyl)amino)-1,3-dimethyl-1,3-dihydro-2H-benzo[d]imidazol-2-one]	0.1 to 100 nM

The next lines start with the values.

EC50	Structure (SMILES)
0.1 to 100 nM	O=C1c2ccc(Nc3ccc(N4CCC(C(F)(F)F)CC4)cc3)cc2CN1C1CCOCC1 [Compound 258, 2-(tetrahydro-2H-pyran-4-yl)-5-((4-(4-(trifluoromethyl)piperidin-1-yl)phenyl)amino)isoindolin-1-one]
0.1 to 100 nM	CCCCCN(CC)c1ccc(Nc2ccc3c(c2)n(C)c(=O)n3C)cc1 [Compound 260, 5-((4-(ethyl(pentyl)amino)phenyl)amino)-1,3-dimethyl-1,3-dihydro-2H-benzo[d]imidazol-2-one]
0.1 to 100 nM	Cn1c(=O)n(C)c2cc(Nc3ccc(C(C)(C)C)cc3)ccc21 [Compound 261, 5-((4-(tert-butyl)phenyl)amino)-1,3-dimethyl-1,3-dihydro-2H-benzo[d]imidazol-2-one]
0.1 to 100 nM	Cc1c(N2CCC(C)CC2)ccc(Nc2ccc3c(c2)n(C)c(=O)n3C)c1F [Compound 263, 5-((2-fluoro-3-methyl-4-(4-methylpiperidin-1-yl)phenyl)amino)-1,3-dimethyl-1,3-dihydro-2H-benzo[d]imidazol-2-one]
0.1 to 100 nM	Cc1cc(N2CCC(C)CC2)c(F)cc1Nc1ccc2c(c1)n(C)c(=O)n2C [Compound 264, 5-((5-fluoro-2-methyl-4-(4-methylpiperidin-1-yl)phenyl)amino)-1,3-dimethyl-1,3-dihydro-2H-benzo[d]imidazol-2-one]
0.1 to 100 nM	Cn1ccc2cc(Nc3ccc4c(c3)n(C)c(=O)n4C)ccc21 [Compound 266, 1,3-dimethyl-5-((1-methyl-1H-indol-5-yl)amino)-1,3-dihydro-2H-benzo[d]imidazol-2-one]
0.1 to 100 nM	CCN(CC)c1ccc(Nc2ccc3c(c2)n(C)c(=O)n3C)cc1 [Compound 268, 5-((4-(diethylamino)phenyl)amino)-1,3-dimethyl-1,3-dihydro-2H-benzo[d]imidazol-2-one]
0.1 to 100 nM	CC1CCN(c2ccc(Nc3ccc4ncn(C)c4c3)cc2)CC1 [Compound 270, 1-methyl-N-(4-(4-methylpiperidin-1-yl)phenyl)-1H-benzo[d]imidazol-6-amine]
0.1 to 100 nM	CC1CCN(c2ccc(Nc3ccc4c(c3)oc(=O)n4C)cc2)CC1 [Compound 273, 3-methyl-6-((4-(4-methylpiperidin-1-yl)phenyl)amino) benzo[d]oxazol-2(3H)-one]
0.1 to 100 nM	CC1CCN(c2c(F)cc(Nc3ccc4c(c3)n(C)c(=O)n4C)cc2F)CC1 [Compound 274, 5-((3,5-difluoro-4-(4-methylpiperidin-1-yl)phenyl)amino)-1,3-dimethyl-1,3-dihydro-2H-benzo[d]imidazol-2-one]
0.1 to 100 nM	Cc1c(Nc2ccc3c(c2)n(C)c(=O)n3C)ccc(N2CCC(C)CC2)c1F [Compound 275, 5-((3-fluoro-2-methyl-4-(4-methylpiperidin-1-yl)phenyl)amino)-1,3-dimethyl-1,3-dihydro-2H-benzo[d]imidazol-2-one]
0.1 to 100 nM	CC1CCN(c2ccc(Nc3ccc4c(c3)n(C)c(=O)n4C)cn2)CC1 [Compound 276, 1,3-dimethyl-5-((6-(4-methylpiperidin-1-yl)pyridin-3-yl)amino)-1,3-dihydro-2H-benzo[d]imidazol-2-one]
0.1 to 100 nM	CC1CN(c2ccc(Nc3ccc4c(c3)n(C)c(=O)n4C)cc2)CC(C)O1 (stereo not shown) [Compound 279, 5-((4-(2,6-dimethylmorpholino)phenyl)amino)-1,3-dimethyl-1,3-dihydro-2H-benzo[d]imidazol-2-one]
0.1 to 100 nM	Cc1c(Nc2ccc3c(c2)n(C)c(=O)n3C)ccc(N2CCC(C)CC2)c1C [Compound 281, 5-((2,3-dimethyl-4-(4-methylpiperidin-1-yl)phenyl)amino)-1,3-dimethyl-1,3-dihydro-2H-benzo[d]imidazol-2-one]
